What was measured:
[1] = Solubility and solution stability of C-005 and its salts; format: physicochemical
[2] = tested on: activated form and resistant mutant form of EGFR; conditions: cited from earlier work
[3] = target: WT EGFR (Homo sapiens, UniProt P00533); conditions: cited from earlier work
Sequence of WT EGFR (P00533 25-1210): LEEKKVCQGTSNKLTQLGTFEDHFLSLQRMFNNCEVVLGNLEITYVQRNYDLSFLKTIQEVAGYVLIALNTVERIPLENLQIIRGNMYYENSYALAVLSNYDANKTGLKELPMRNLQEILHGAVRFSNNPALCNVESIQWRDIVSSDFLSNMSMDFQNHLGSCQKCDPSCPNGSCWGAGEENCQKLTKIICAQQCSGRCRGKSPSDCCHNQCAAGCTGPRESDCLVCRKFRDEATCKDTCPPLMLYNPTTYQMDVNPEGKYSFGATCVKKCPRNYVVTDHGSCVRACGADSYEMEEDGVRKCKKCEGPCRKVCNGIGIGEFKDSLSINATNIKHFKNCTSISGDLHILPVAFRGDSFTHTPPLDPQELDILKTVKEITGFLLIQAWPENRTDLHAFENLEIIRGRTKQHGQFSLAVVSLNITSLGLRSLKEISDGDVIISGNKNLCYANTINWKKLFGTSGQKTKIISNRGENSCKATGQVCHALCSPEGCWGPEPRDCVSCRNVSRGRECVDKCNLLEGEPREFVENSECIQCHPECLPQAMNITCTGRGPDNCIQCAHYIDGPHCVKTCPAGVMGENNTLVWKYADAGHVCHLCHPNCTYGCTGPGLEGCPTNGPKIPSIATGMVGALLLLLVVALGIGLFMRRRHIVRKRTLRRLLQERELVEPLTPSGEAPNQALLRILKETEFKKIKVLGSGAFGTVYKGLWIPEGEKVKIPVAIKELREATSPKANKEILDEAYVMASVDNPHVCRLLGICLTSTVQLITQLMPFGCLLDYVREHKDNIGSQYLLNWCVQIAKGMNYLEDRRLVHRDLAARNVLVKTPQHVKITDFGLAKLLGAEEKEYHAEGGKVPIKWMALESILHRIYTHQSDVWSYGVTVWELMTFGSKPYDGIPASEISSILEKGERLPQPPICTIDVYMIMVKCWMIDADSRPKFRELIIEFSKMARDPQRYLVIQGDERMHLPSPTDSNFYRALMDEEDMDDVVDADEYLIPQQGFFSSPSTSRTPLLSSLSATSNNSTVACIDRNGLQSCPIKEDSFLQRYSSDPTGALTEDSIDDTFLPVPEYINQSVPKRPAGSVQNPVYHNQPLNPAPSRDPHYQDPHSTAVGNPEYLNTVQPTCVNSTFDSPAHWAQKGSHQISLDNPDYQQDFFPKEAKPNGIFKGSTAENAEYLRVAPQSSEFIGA

C=CC(=O)Nc1cc(Nc2nccc(-c3cn(C)c4cccnc34)n2)c(OC)cc1N(C)CCN(C)C.O=C(O)CC(O)(CC(=O)O)C(=O)O [C-005 citrate, N-(2-((2-(dimethylamino)ethyl)(methyl)amino)-4-methoxy-5-((4-(1-methyl-1H-pyrrolo[3,2-b]pyridin-3-yl)pyrimidin-2-yl)amino)phenyl)acrylamide citrate]
Time period for which the solution is stable and does not precipitate ([1]; solution of the citrate, once formed): at least 24 hours | Solubility compared with C-005 in the free-base form ([1]; under the pH conditions in intestine): significantly higher

C=CC(=O)Nc1cc(Nc2nccc(-c3cn(C)c4cccnc34)n2)c(OC)cc1N(C)CCN(C)C [C-005, N-(2-((2-(dimethylamino)ethyl)(methyl)amino)-4-methoxy-5-((4-(1-methyl-1H-pyrrolo[3,2-b]pyridin-3-yl)pyrimidin-2-yl)amino)phenyl)acrylamide]
pH dependence of solubility (and permeability) [1]: significant pH-dependent solubility and permeability | Solubility in simulated gastric fluid compared to the solubility in aqueous solution ([1]; simulated gastric fluid (pH 1.2) vs aqueous solution (pH 7)): approximately 40 times | Inhibition of activated form and resistant mutant form of EGFR [2]: inhibit both activated form and resistant mutant form of EGFR | Inhibitory activity against WT EGFR [3]: relatively low inhibitory activity
